Test system: HeLa
Assay: Antitumor activity against Homo sapiens (human) HeLa cells assessed as inhibition of cell proliferation after 48 hr by SRB assay
Assay type: functional, cell-based

| SMILES | IC50 |
| --- | --- |
| COc1ccc(-c2nc(Nc3ccc(S(N)(=O)=O)cc3)n3c(=O)[nH]nc3c2C#N)cc1OC | 47 nM |
| COc1ccc(-c2nc(Nc3ccc(S(N)(=O)=O)cc3)nc(N3N=C(C)CC3=O)c2C#N)cc1OC | 46 nM |
| CCOC1=NN(c2nc(Nc3ccc(S(N)(=O)=O)cc3)nc(-c3ccc(OC)c(OC)c3)c2C#N)C(=O)C1 | 42 nM |
| COc1ccc(-c2nc(Nc3ccc(S(N)(=O)=O)cc3)nc(-n3nc(C)cc3C)c2C#N)cc1OC | 41 nM |
| COc1ccc(-c2nc(Nc3ccc(S(N)(=O)=O)cc3)n3c(C)nnc3c2C#N)cc1OC | 48 nM |
| COc1ccc(C2=C(C#N)C3=NCC(=O)N3C(Nc3ccc(S(N)(=O)=O)cc3)=N2)cc1OC | 42 nM |
| COc1ccc(-c2nc(Nc3ccc(S(N)(=O)=O)cc3)n3nnnc3c2C#N)cc1OC | 39 nM |
| COc1cccc2c1C(=O)c1c(O)c3c(c(O)c1C2=O)C[C@@](O)(C(=O)CO)C[C@@H]3O[C@H]1C[C@H](N)[C@H](O)[C@H](C)O1 [DOXORUBICIN] | 16 nM |

— ChEMBL document CHEMBL3045263, “Novel 2-thiopyrimidine derivatives as CDK2 inhibitors: molecular modeling, synthesis, and anti-tumor activity evaluation” (Med Chem Res, 2013)
